Consider 19 compounds from patent US12448388B2, “PRMT5 inhibitors and uses thereof” (Gilead Sciences, Inc., priority 2023, dated 2025).

In the test the test system is HCT116 MTAP-deleted cell lines. In words: Cell viability assay (CellTiter-Glo, 7 days), HCT116 MTAP-deleted. It counts as cell-based. As to conditions: Homo sapiens, HCT-116; cell viability, HCT116 MTAP-deleted; class symbols; read-out: CC50. The method, then:
Control compounds were analyzed in parallel each time for quality control. In Brief, on Day -1, a serial dilution of stock compounds in DMSO was performed using BioMek liquid handlers and dispensed using Echo acoustic dispenser into 384 well plates. Both tool compounds and sample compounds were spotted in the same plate for a dose response of PRMT5 inhibitors. Compound plates were stored as frozen until the cells were ready for seeding. […] After equilibrating the plate in room temperature, the cells were incubated for 7 days inside the sealed incubator set at 37° C. with 90% humidity and 5% CO2. On Day 7, the viability of cells was measured using a CTG assay kit (CellTitre-Glo;Promega cat no. G7573). Shortly, 40 μl per well of luminescent cell viability assay reagent were dispensed using EL460 liquid dispenser 5 μl cassette. CTG luminescence signal was measured using an EnVision plate reader (PerkinElmer) in accordance with manufacturer's instruction. […] Selectivity with * is artificially high due to limited solubility of the compound hampering accurate measurement of WT CC50.
A general note: In ATP-based viability assays light output follows the ATP content of the culture.

The structures appear in SMILES notation. Bounds are passed on as bounds.

For `Nc1nc2ccc(C(=O)N3CCO[C@@H]4Cc5cc(C(F)(F)F)ccc5[C@@H]43)cc2n2cncc12` (racemic) [Ff-33, Racemic (4-aminoimidazo[1,5-a]quinoxalin-8-yl)((4aS,9aR)-7-(trifluoromethyl)-2,3,9,9a-tetrahydroindeno[2,1-b][1,4]oxazin-4(4aH)-yl)methanone], the CC50 was 0.1 to 1 µM.

Regarding `Nc1nc2cc(F)c(C(=O)N3CCO[C@@H]4Cc5cc(C(F)(F)F)ccc5[C@@H]43)cc2n2cncc12` (racemic) [Ff-34, Racemic (4-amino-7-fluoroimidazo[1,5-a]quinoxalin-8-yl)((4aS,9aR)-7-(trifluoromethyl)-2,3,9,9a-tetrahydroindeno[2,1-b][1,4]oxazin-4(4aH)-yl)methanone], the CC50 is less than 0.1 µM.

Consider `Nc1nc2cc(Cl)c(C(=O)N3CCO[C@@H]4Cc5cc(C(F)(F)F)ccc5[C@@H]43)cc2n2cncc12` (racemic) [Ff-35, Racemic (4-amino-7-chloroimidazo[1,5-a]quinoxalin-8-yl)((4aS,9aR)-7-(trifluoromethyl)-2,3,9,9a-tetrahydroindeno[2,1-b][1,4]oxazin-4(4aH)-yl)methanone], for which the CC50 is less than 0.1 µM.

As to `Nc1nc2cc(F)c(C(=O)N3CCO[C@@H]4Cc5ccccc5[C@@H]43)cc2n2cncc12` (racemic) [Ff-36, Racemic(4-amino-7-fluoroimidazo[1,5-a]quinoxalin-8-yl)((4aS,9aR)-2,3,9,9a-tetrahydroindeno[2,1-b][1,4]oxazin-4(4aH)-yl)methanone], the CC50 is 0.1 to 1 µM.

Regarding `Nc1nc2ccc(C(=O)N3CCO[C@@H]4Cc5cc(Br)ccc5[C@@H]43)cc2n2cncc12` (racemic) [Ff-37, Racemic (4-aminoimidazo[1,5-a]quinoxalin-8-yl)((4aS,9aR)-7-bromo-2,3,9,9a-tetrahydroindeno[2,1-b][1,4]oxazin-4(4aH)-yl)methanone], the CC50 fell in the range of 0.1 to 1 µM.

With `C[C@@H]1OC[C@@H](N(C)C(=O)c2ccc3nc(N)c4cncn4c3c2)c2ccc(C(F)(F)F)cc21` (racemic) [Ff-41, Trans-4-amino-N-methyl-N-(trans-1-methyl-7-(trifluoromethyl)isochroman-4-yl)imidazo[1,5-a]quinoxaline-8-carboxamide], the CC50 was less than 0.1 µM.

`C[C@H]1OC[C@@H](N(C)C(=O)c2ccc3nc(N)c4cncn4c3c2)c2ccc(C(F)(F)F)cc21` (racemic) [Ff-42, Cis-4-amino-N-methyl-N-(1-methyl-7-(trifluoromethyl)isochroman-4-yl)imidazo[1,5-a]quinoxaline-8-carboxamide]: the CC50 was less than 0.1 µM.

In the case of `C[C@H]1CN(C(=O)c2cc3c(cc2F)nc(N)c2cncn23)[C@H]2c3ccccc3C[C@H]2O1` (racemic) [Ff-55, Rac-(4-amino-7-fluoroimidazo[1,5-a]quinoxalin-8-yl)((2S,4aS,9aR)-2-methyl-2,3,9,9a-tetrahydroindeno[2,1-b][1,4]oxazin-4(4aH)-yl)methanone], the CC50 is less than 0.1 µM.

As for `C[C@@H]1CN(C(=O)c2cc3c(cc2F)nc(N)c2cncn23)[C@H]2c3ccccc3C[C@H]2O1` (racemic) [Ff-56, Rac-(4-amino-7-fluoroimidazo[1,5-a]quinoxalin-8-yl)((2R,4aS,9aR)-2-methyl-2,3,9,9a-tetrahydroindeno[2,1-b][1,4]oxazin-4(4aH)-yl)methanone], the CC50 is 0.1 to 1 µM.

As for `COc1ccc2c(c1)CO[C@H]1CCN(C(=O)c3cc4c(cc3F)nc(N)c3cncn34)[C@@H]21` (racemic) [Ff-67, Rac-(4-amino-7-fluoroimidazo[1,5-a]quinoxalin-8-yl)((3aS,9bS)-7-methoxy-3,3a,5,9b-tetrahydroisochromeno[4,3-b]pyrrol-1(2H)-yl)methanone], the CC50 lay within 0.1 to 1 µM.

Consider `Nc1nc2ccc(C(=O)N3CC[C@H]4C[C@@H]3c3ccc(C(F)(F)F)cc34)cc2n2cncc12` (racemic) [Ff-74, (Rac)-(4-aminoimidazo[1,5-a]quinoxalin-8-yl)(7-(trifluoromethyl)-1,3,4,5-tetrahydro-2H-1,5-methanobenzo[c]azepin-2-yl)methanone], for which the CC50 lay in the range of 0.1 to 1 µM.

Take `CC1COC2Cc3cc(C(F)(F)F)ccc3C2N1C(=O)c1cc2c(cc1F)nc(N)c1cncn12` (racemic) [Ff-85, (4-amino-7-fluoroimidazo[1,5-a]quinoxalin-8-yl)(3-methyl-7-(trifluoromethyl)-2,3,9,9a-tetrahydroindeno[2,1-b][1,4]oxazin-4(4aH)-yl)methanone]: the CC50 is less than 0.1 µM.

For the compound `Nc1nc2cc(F)c(C(=O)N3CCO[C@@H]4Cc5nc(C(F)(F)F)ccc5[C@@H]43)cc2n2cncc12` (racemic) [Ff-88, Rac-(4-amino-7-fluoroimidazo[1,5-a]quinoxalin-8-yl)((4aR,9bS)-7-(trifluoromethyl)-2,3,5,9b-tetrahydropyrido[3′,2′:3,4]cyclopenta[1,2-b][1,4]oxazin-1(4aH)-yl)methanone], the CC50 was in the range of 0.1 to 1 µM.

As for `Nc1nc2cc(F)c(C(=O)N3CC[C@H]4C[C@@H]3c3ccc(C(F)(F)F)nc34)cc2n2cncc12` (racemic) [Ff-90, Rac-(4-amino-7-fluoroimidazo[1,5-a]quinoxalin-8-yl)((5R,9S)-2-(trifluoromethyl)-5,7,8,9-tetrahydro-6H-5,9-methanopyrido[3,2-c]azepin-6-yl)methanone], the CC50 is 0.1 to 1 µM.

As for `Nc1nc2cc(Cl)c(C(=O)N3CC[C@H]4C[C@@H]3c3ccc(C(F)(F)F)nc34)cc2n2cncc12` (racemic) [Ff-91, Rac-(4-amino-7-chloroimidazo[1,5-a]quinoxalin-8-yl)((5R,9S)-2-(trifluoromethyl)-5,7,8,9-tetrahydro-6H-5,9-methanopyrido[3,2-c]azepin-6-yl)methanone], the CC50 is less than 0.1 µM.

Turning to `Cc1ncc2c(N)nc3cc(F)c(C(=O)N4CCC[C@@H]5Oc6cc(C(F)(F)F)ccc6[C@@H]54)cc3n12` (racemic) [Ff-99, Rac-(4-amino-7-fluoro-1-methylimidazo[1,5-a]quinoxalin-8-yl)(7-(trifluoromethyl)-3,4,4a,9b-tetrahydrobenzofuro[3,2-b]pyridin-1(2H)-yl)methanone], the CC50 is less than 0.1 µM.

For the compound `C[C@@H]1CC[C@@H]2Oc3cc(C(F)(F)F)ccc3[C@@H]2N1C(=O)c1cc2c(cc1F)nc(N)c1cncn12` (racemic) [Ff-100, Rac-(4-amino-7-fluoroimidazo[1,5-a]quinoxalin-8-yl)((2R,4aS,9bS)-2-methyl-7-(trifluoromethyl)-3,4,4a,9b-tetrahydrobenzofuro[3,2-b]pyridin-1(2H)-yl)methanone], the CC50 was less than 0.1 µM.

With `Nc1nc2cc(F)c(C(=O)N3CCC[C@@H]4Oc5cc(F)c(F)cc5[C@@H]43)cc2n2cncc12` (racemic) [Ff-101, Rac-(4-amino-7-fluoroimidazo[1,5-a]quinoxalin-8-yl)((4aS,9bS)-7,8-difluoro-3,4,4a,9b-tetrahydrobenzofuro[3,2-b]pyridin-1(2H)-yl)methanone], the CC50 was 0.1 to 1 µM.

Take `Nc1nc2cc(F)c(C(=O)N3CCC[C@@H]4Oc5c(ccc(F)c5F)[C@@H]43)cc2n2cncc12` (racemic) [Ff-102, Rac-(4-amino-7-fluoroimidazo[1,5-a]quinoxalin-8-yl)((4aS,9bS)-6,7-difluoro-3,4,4a,9b-tetrahydrobenzofuro[3,2-b]pyridin-1(2H)-yl)methanone]: the CC50 lay within 0.1 to 1 µM.

As a reminder, the CC50 is the concentration that lowers cell viability or growth by half.
